From patent publication US20230078702A1, “USE OF MITOXANTRONE HYDROCHLORIDE LIPOSOME FOR TREATING BREAST CANCER” (CSPC ZHONGQI PHARMACEUTICAL TECHNOLOGY (SHIJIAZHUANG) CO., …, priority 2020, published 2023)
Structures can show the parent of a compound that is named as a salt.

Assays:
[1] = system: patients with advanced recurrent or metastatic breast cancer; details: human, in vivo
Experimental: The study is a randomized, open-labeled, active controlled, single center study to evaluate the safety and efficacy of the mitoxantrone hydrochloride liposome injection in patients with advanced recurrent or metastatic breast cancer.
Investigational product: mitoxantrone hydrochloride liposome injection (PLM60 (10 mg/10 mL/vial)) was added to 250 mL of 5% glucose at a dose of 20 mg/m^2 and was administered intravenously over 1 h.
Reference product: mitoxantrone hydrochloride injection (5 mg/5 mL/vial, manufactured by Sichuan Sunnyhope Pharmaceutical, Inc., supplied by CSPC ZHONGQI Pharmaceutical Technology (Shijiazhuang) Co., Ltd., Lot No. 1501201) was added to 100 mL of 5% glucose injection at a dose of 14 mg/m^2 and was administered intravenously over 30 min.
The safety assessment indicators included: vital signs, adverse events, laboratory tests (complete blood test, routine urinalysis, blood biochemistry, electrocardiogram, echocardiogram), and early withdrawal. Safety assessment criteria: NCI-CTC 4.0.
For the drug mitoxantrone, the most serious adverse event is cardiotoxicity. Clinical studies and practical observations have shown that the cardiotoxicity caused by anthracyclines are mainly progressive and irreversible. Especially anthracyclines can easily cause cardiac damage at first use. Cardiotoxicity is a common concern for clinicians since it is a long-term cumulative dose-limiting toxicity. The incidence of increased troponin T and the incidence of increased brain natriuretic peptide were used as indices for examining cardiotoxicity in this trial. The change of the cardiac troponin T level can reflect myocardium damage with high sensitivity; brain natriuretic peptide is a polypeptide hormone secreted by cardiomyocytes in the heart ventricles in response to stretching caused by increased ventricular blood volume and increased ventricular pressure.

[2] = system: patients with advanced recurrent or metastatic breast cancer; test: Efficacy evaluation (RECIST 1.1) in randomized, open-labeled, active controlled clinical study; format: in vivo, human; parameters: disease control rate (PR+SD): concentration or dose not given beside the values
Experimental: A tumor assessment was performed at baseline.
During the treatment period, the efficacy evaluation was performed once every two cycles; in addition, when the efficacy evaluation result was PR or CR, the efficacy should be radiologically confirmed after 4 weeks. After the completion of the treatment, the evaluation was performed every 3 months until disease progression. Tumor evaluation was performed according to RECIST 1.1 criteria.
Primary efficacy endpoint: objective response rate (ORR), referring to the ratio of subjects reaching PR and CR.
Secondary efficacy endpoint: progression-free survival (PFS), referring to the time from the start of randomization to disease progression or death.

For `O=C1c2c(O)ccc(O)c2C(=O)c2c(NCCNCCO)ccc(NCCNCCO)c21` [Control group, mitoxantrone hydrochloride], the “Anemia, number of subjects” value [1] was 14, the “Decreased neutrophil count, number of subjects” value [1] was 29 and the “Decreased platelet count, number of subjects” value [1] was 16. The “Decreased white blood cell count, number of subjects” value [1] was 29, the “Fever, number of subjects” value [1] was 3 and the Incidence of fever [1] was “(10.0%)”. For the same molecule, the “Incidence of increased alanine aminotransferase” value [1] was “(26.70%)”, the “Incidence of increased blood bilirubin” value [1] was “(20.00%)” and the “Incidence of skin hyperpigmentation” value [1] was 3.3%. The “Increased alanine aminotransferase, number of subjects” value [1] was 8, the “Increased aspartate aminotransferase, number of subjects” value [1] was 16 and the “Increased blood bilirubin, number of subjects” value [1] was 6. The “Increased brain natriuretic peptide, number of subjects” value [1] was 10, the “Increased conjugated bilirubin, number of subjects” value [1] was 17 and the “Increased troponin T, number of subjects” value [1] was 11. The “overall incidence rate of adverse events” value [1] was 100%, the Progression-free survival rate ([2]; 3 months, FAS (N = 60)) was 26.7% and the Progression-free survival rate ([2]; 3 months, PPS (N = 58)) was 28.6. It also gave a Progression-free survival rate ([2]; 6 months, FAS (N = 60), hydrochloride) of 20.0%, a Progression-free survival rate ([2]; 6 months, FAS (N = 60), listed as control group, hydrochloride) of 20% and a Progression-free survival rate ([2]; 6 months, PPS (N = 58)) of 21.4. For the same molecule, the Progression-free survival rate ([2]; 12 months, FAS (N = 60)) was 0%, the Progression-free survival rate ([2]; 12 months, PPS (N = 58)) was 0 and the “disease control rate (PR+SD)” value ([2]; 30 subjects per group) was 30%. For the same molecule, the “objective response rate (ORR)” value ([2]; 30 subjects per group) was 6.7%, the “Best overall response NA, number of subjects” value ([2]; FAS (N = 60)) was 2 and the “Best overall response NA, percent of subjects” value ([2]; FAS (N = 60)) was “(6.7%)”. For the same molecule, the “Best overall response PD, number of subjects” value ([2]; FAS (N = 60)) was 19, the “Best overall response PD, percent of subjects” value ([2]; FAS (N = 60)) was “(63.3%)” and the “Best overall response PR, percent of subjects” value ([2]; FAS (N = 60)) was “(6.7%)”. The “Best overall response SD, number of subjects” value ([2]; FAS (N = 60)) was 7, the “Best overall response SD, percent of subjects” value ([2]; FAS (N = 60)) was “(23.3%)” and the “Median PFS” value ([2]; FAS (N = 60)) was 1.86 month. For the same molecule, the “Number of events (%) (PFS), percent” value ([2]; FAS (N = 60)) was 83.3%, the “Number of events (PFS)” value ([2]; FAS (N = 60)) was 25 and the “Best overall response PR, number of subjects” value ([2]; FAS (N = 60), liposome 20 mg/m^2 or injection 14 mg/m^2 i.v. once every 4 weeks) was 2. For the same molecule, the “Best overall response NA, number of subjects” value ([2]; PPS (N = 58)) was 0, the “Best overall response NA, percent of subjects” value ([2]; PPS (N = 58)) was “(0.0) %” and the “Best overall response PD, number of subjects” value ([2]; PPS (N = 58)) was 19. The “Best overall response PD, percent of subjects” value ([2]; PPS (N = 58)) was “(67.9%)”, the “Best overall response PR, number of subjects” value ([2]; PPS (N = 58)) was 2 and the “Best overall response PR, percent of subjects” value ([2]; PPS (N = 58)) was “(7.1%)”. For the same molecule, the “Best overall response SD, number of subjects” value ([2]; PPS (N = 58)) was 7, the “Best overall response SD, percent of subjects” value ([2]; PPS (N = 58)) was “(28.6%)” and the “Median PFS” value ([2]; PPS (N = 58)) was 1.86 month. The “Number of events (%) (PFS), percent” value ([2]; PPS (N = 58)) was 82.14% and the “Number of events (PFS)” value ([2]; PPS (N = 58)) was 23.
